Laboratory results taken from ChEMBL document CHEMBL4477245, “Development of a Series of (1-Benzyl-3-(6-methoxypyrimidin-3-yl)-5-(trifluoromethoxy)-1H-indol-2-yl)methanols as Selective Protease Activated Receptor 4 (PAR4) Antagonists with in Vivo Utility and Activity Against γ-Thrombin” (J Med Chem, 2016).
pIC50: −log10 of the molar value. The source made the active and inactive calls. No cut-off for these calls is given here.

Assays:
[1] = biological target: T1, Proteinase-activated receptor 4 (Homo sapiens) (UniProt Q96RI0); test: Mixed competitive/non-competitive inhibition of PAR4 activating peptide domain in human platelets assessed as inhibition of alpha2bbeta3 activation level by PAC1 binding assay based by Schild analysis
T1 sequence (whole entry): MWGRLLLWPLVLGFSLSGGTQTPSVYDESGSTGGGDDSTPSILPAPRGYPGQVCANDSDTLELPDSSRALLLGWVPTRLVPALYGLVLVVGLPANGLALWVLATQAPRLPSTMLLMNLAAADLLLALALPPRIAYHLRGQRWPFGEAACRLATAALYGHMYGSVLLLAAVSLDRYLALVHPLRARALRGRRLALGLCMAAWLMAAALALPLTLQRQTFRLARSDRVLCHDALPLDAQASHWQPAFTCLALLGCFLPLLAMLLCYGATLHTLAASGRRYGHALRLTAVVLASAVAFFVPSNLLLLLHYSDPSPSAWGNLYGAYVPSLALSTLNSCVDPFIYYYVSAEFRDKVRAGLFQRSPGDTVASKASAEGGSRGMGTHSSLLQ

[2] = biological target: T1, Proteinase-activated receptor 4 (Homo sapiens); test: Antagonist activity against PAR4 activating peptide domain in human platelets assessed as inhibition of alpha2bbeta3 activation level at 10 uM by PAC1 binding assay
[3] = biological target: T2, Proteinase-activated receptor 4 (Homo sapiens, UniProt Q96RI0); test: Antagonist activity against PAR4 activating peptide domain in human platelets assessed as inhibition of alpha2bbeta3 activation level by PAC1 binding assay
T2 sequence (Q96RI0 whole entry): T1 sequence (whole entry)

[4] = biological target: T3, Proteinase-activated receptor 1 (Homo sapiens, UniProt P25116); test: Inhibition of PAR1 (unknown origin)
T3 sequence (P25116 whole entry): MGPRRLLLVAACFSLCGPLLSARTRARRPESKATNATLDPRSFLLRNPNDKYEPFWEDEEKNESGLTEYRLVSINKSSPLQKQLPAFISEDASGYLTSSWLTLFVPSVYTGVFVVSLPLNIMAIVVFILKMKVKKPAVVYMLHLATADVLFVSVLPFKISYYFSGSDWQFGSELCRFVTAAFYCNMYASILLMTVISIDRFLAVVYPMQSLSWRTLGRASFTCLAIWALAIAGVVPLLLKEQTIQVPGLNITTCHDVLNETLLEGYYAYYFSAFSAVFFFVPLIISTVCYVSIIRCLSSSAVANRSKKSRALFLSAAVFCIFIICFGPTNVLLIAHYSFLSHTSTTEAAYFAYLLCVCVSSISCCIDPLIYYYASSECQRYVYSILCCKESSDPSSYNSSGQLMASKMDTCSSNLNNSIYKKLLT

[5] = Unbound protein binding in rat plasma; type: ADME, cell-free
[6] = Unbound protein binding in human plasma; type: ADME, cell-free
[7] = Half life in Sprague-Dawley rat at 0.2 mg/kg, iv through cassette dosing up to 6 hrs by LC-MS/MS method; conditions: in vivo
Cytochrome P450 2C9 = Cytochrome P450 2C9 (Homo sapiens, UniProt P11712); test: Inhibition of CYP2C9 in human liver microsomes incubated for 15 mins using diclofenac substrate in presence of NADPH by LC-MS/MS method
Sequence of Cytochrome P450 2C9 (P11712 whole entry): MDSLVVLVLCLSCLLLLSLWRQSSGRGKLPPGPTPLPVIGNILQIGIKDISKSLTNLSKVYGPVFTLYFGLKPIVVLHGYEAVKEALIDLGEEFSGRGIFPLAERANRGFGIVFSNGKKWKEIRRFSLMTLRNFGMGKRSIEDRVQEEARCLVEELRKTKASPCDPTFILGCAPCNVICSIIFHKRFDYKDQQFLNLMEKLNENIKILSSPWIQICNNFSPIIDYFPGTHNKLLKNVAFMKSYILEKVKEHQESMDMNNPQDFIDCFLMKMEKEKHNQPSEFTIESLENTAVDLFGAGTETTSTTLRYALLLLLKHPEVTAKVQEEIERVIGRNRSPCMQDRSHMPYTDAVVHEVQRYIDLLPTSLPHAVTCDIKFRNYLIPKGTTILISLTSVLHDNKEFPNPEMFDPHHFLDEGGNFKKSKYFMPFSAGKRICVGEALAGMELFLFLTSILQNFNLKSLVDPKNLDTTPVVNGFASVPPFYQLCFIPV

Cytochrome P450 2D6 = Cytochrome P450 2D6 (Homo sapiens, UniProt P10635); test: Inhibition of CYP2D6 in human liver microsomes incubated for 15 mins using dextromethorphan substrate in presence of NADPH by LC-MS/MS method
Sequence of Cytochrome P450 2D6 (P10635 whole entry, the tested form may be a part): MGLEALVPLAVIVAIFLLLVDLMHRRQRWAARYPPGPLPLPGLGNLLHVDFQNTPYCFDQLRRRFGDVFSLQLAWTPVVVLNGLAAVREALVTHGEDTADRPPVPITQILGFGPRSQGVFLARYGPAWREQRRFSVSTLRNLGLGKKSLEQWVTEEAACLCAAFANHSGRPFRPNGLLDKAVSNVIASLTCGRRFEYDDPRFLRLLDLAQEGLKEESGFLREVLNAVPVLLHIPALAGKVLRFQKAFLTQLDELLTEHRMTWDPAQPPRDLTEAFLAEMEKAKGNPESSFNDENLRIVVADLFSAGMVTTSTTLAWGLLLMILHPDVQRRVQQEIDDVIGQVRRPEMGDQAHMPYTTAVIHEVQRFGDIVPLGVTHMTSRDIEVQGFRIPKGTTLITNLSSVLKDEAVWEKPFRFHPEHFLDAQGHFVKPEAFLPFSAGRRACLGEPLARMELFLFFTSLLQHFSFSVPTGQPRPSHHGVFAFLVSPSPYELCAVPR

[8] = biological target: T2, Proteinase-activated receptor 4; test: Antagonist activity against PAR4 activating peptide domain in human platelets assessed as inhibition of P-selectin activation
[9] = biological target: T1, Proteinase-activated receptor 4 (Homo sapiens); test: Antagonist activity at PAR4 TL domain in human platelets assessed as gamma-thrombin-induced PAC1 binding response at 10 uM preincubated for 20 mins followed by agonist addition for 20 mins by FITC based flow cytometric analysis
[10] = Unbound protein binding in rat plasma at 5 uM after 4 hrs by LC/MS/MS analysis
[11] = Unbound protein binding in human plasma at 5 uM after 4 hrs by LC/MS/MS analysis
Cytochrome P450 1A2 = biological target: T4, Cytochrome P450 1A2 (Homo sapiens, UniProt P05177); test: Inhibition of CYP1A2 in human liver microsomes incubated for 15 mins using phenacetin substrate in presence of NADPH by LC-MS/MS method
T4 sequence (P05177 whole entry): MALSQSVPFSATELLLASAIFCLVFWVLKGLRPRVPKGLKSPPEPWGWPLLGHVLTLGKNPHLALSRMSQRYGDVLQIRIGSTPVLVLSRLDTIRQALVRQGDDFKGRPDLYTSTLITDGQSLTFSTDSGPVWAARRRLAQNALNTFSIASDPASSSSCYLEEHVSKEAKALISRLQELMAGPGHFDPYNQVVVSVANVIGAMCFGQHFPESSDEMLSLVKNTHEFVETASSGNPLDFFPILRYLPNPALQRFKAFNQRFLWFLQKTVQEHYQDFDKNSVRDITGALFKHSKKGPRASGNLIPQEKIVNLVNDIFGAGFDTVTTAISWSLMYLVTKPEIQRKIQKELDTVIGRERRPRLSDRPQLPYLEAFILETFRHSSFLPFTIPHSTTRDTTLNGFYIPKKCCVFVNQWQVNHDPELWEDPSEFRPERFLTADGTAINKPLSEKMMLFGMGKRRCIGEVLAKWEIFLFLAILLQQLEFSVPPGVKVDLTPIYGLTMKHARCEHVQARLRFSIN

Cytochrome P450 3A4 = Cytochrome P450 3A4 (Homo sapiens, UniProt P08684); test: Inhibition of CYP3A4 in human liver microsomes incubated for 15 mins using midazolam substrate in presence of NADPH by LC-MS/MS method
Sequence of Cytochrome P450 3A4 (P08684 whole entry, the tested form may be a part): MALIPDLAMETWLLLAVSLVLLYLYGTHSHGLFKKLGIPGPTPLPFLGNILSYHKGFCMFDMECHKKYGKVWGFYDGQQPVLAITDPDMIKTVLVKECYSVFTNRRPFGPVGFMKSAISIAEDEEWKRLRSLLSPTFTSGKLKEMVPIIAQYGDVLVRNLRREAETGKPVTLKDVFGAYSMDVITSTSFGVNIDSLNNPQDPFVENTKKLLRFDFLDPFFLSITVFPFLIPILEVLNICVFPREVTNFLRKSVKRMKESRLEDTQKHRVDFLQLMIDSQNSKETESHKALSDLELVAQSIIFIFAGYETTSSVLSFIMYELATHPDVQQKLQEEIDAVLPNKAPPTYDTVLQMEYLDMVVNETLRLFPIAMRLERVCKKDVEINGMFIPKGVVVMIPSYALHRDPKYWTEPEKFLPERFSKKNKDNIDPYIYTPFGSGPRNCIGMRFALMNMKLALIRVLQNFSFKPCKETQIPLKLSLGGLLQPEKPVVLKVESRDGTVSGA

[12] = biological target: T2, Proteinase-activated receptor 4; test: Antagonist activity at PAR4 TL domain in human platelets assessed as gamma-thrombin-induced PAC1 binding response preincubated for 20 mins followed by agonist addition for 20 mins by FITC based flow cytometric analysis
[13] = Volume of distribution in steady state in Sprague-Dawley rat at 0.2 mg/kg, iv through cassette dosing up to 6 hrs by LC-MS/MS method; conditions: in vivo

Row | Compound | %max [2] | pIC50 [3] | also measured
1 | COc1ccc(-c2c(CO)n(Cc3ccccc3Cl)c3ccc(OC(F)(F)F)cc23)cn1 |  |  | inhibition [1]: Active
2 | COc1ccc(-c2c(CO)n(Cc3cccc(C(F)(F)F)c3)c3ccc(OC(F)(F)F)cc23)cn1 | 19.7% | 5.32 | 
3 | COc1ccc(-c2c(CO)n(Cc3cccc(Br)c3)c3ccc(OC(F)(F)F)cc23)cn1 | 27.1% | 5.66 | 
4 | COc1ccc(-c2c(CO)n(Cc3ccccc3)c3ccc(OC(F)(F)F)cc23)cn1 | 53.4% | < 5.00 | 
5 | COc1ccc2c(-c3ccc(OC)nc3)c(CO)n(Cc3ccccc3Cl)c2c1 | 4.31% | 5.86 | 
6 | OCc1c(-c2ccncc2)c2cc(OC(F)(F)F)ccc2n1Cc1ccccc1Cl | 101% | < 5.00 | 
7 | CSc1ncc(-c2c(CO)n(Cc3ccccc3Cl)c3cc(OC(F)(F)F)ccc23)cn1 | 5.57% | 6.68 | pIC50 [4]: < 4.52
8 | CCOc1ccc2c(-c3ccc(OC)nc3)c(CO)n(Cc3ccccc3Cl)c2c1 | 19.7% | 5.42 | 
9 | COc1ncc(-c2c(CO)n(Cc3ccc(F)cc3F)c3ccc(OC(F)(F)F)cc23)cn1 | 53.6% |  | 
10 | COc1ccc(-c2c(CO)n(Cc3ccccc3F)c3ccc(OC(F)(F)F)cc23)cn1 | 89% | < 5.00 | 
11 | COc1ccc(-c2c(CO)n(C)c3ccc(C(F)(F)F)cc23)cn1 | 106% | < 5.00 | 
12 | COc1ncc(-c2c(CO)n(Cc3ccccc3Cl)c3ccc(OC(F)(F)F)cc23)cn1 | 7.95% | 5.82 | 
13 | COc1ccc(-c2c(CO)n(Cc3cccc(Cl)c3)c3ccc(OC(F)(F)F)cc23)cn1 | 95.5% | < 5.00 | 
14 | CCOc1ncc(-c2c(CO)n(Cc3ccccc3Cl)c3ccc(OC(F)(F)F)cc23)cn1 | 35.4% | 5.31 | 
15 | CCOC(=O)c1ccc(-c2nn(Cc3ccccc3)c3ccccc23)cc1 |  |  | PB [5]: Unstable; PB [6]: Unstable
16 | CCOC(=O)c1ccc(-c2cn(Cc3ccccc3)c3ccccc23)cc1 |  |  | PB [5]: Unstable; PB [6]: Unstable
17 | COc1ccc(-c2c(CO)n(Cc3ccccc3Cl)c3cc(OC(F)(F)F)ccc23)cn1 | 12.3% | 6.03 | pIC50 [4]: < 4.52
18 | OCc1c(-c2cncnc2)c2cc(OC(F)(F)F)ccc2n1Cc1ccc(F)cc1F | 96.1% | < 5.00 | 
19 | COc1nn2cc(-c3c(CO)n(Cc4ccccc4Cl)c4ccc(OC(F)(F)F)cc34)nc2s1 | 3.2% | 6.74 | t1/2 [7]: 6.1 h; pIC50 (Cytochrome P450 2C9): 4.95; pIC50 (Cytochrome P450 2D6): 5.92; pIC50 [8]: 6.88; inhibition [9]: 39.4%; Fu [10]: 0.003; Fu [11]: 0.004; pIC50 (Cytochrome P450 1A2): < 4.52; pIC50 [4]: < 4.52; pIC50 (Cytochrome P450 3A4): < 4.52; inhibition [1]: Active; pIC50 [12]: 5.36; Vdss [13]: 21.1 L/kg
20 | COc1ccc2c(-c3cnc(SC)nc3)c(CO)n(Cc3ccccc3Cl)c2c1 | 21.3% | 5.38 | 
21 | COc1ccc(-c2c(CO)n(Cc3ccc(F)cc3F)c3ccc(OC(F)(F)F)cc23)cn1 | 19.7% | 5.29 | pIC50 [4]: < 4.52
22 | COc1cccc(Cn2c(CO)c(-c3ccc(OC)nc3)c3cc(C(F)(F)F)ccc32)c1 | 108% | < 5.00 | 
23 | CSc1ncc(-c2c(CO)n(Cc3ccc(F)cc3F)c3ccc(OC(F)(F)F)cc23)cn1 | 15.6% | 5.83 | 
24 | COc1ccc(-c2c(CO)n(Cc3cccc(F)c3)c3ccc(OC(F)(F)F)cc23)cn1 | 80.6% | < 5.00 | 
